# Columns and labels:
# C. parvum GCH1 oocysts = test: Intact C. parvum oocyst assay on MDBKF5D2 cell monolayers, immunofluorescence; type: cell-based
# Procedure: In vitro doses of drugs. Thiostrepton (Calbiochem) was dissolved in sterile complete Dulbecco's Modified Eagle Medium (DMEM) supplemented with dimethyl sulfoxide (DMSO) at 0.2% and tested at concentrations of 800, 400, 200, and 100, 10, 1 and 0.1 μg/ml.
# (§1) Intact C. parvum oocyst asset 3.0×10^4 C. parvum GCH1 oocysts per well were incubated in the above-mentioned concentrations of drug at 37° C. (8% CO2) on confluent MDBKF5D2 cell monolayers in 96 well microtiter plates. The level of infection in each well was determined and analyzed by immunofluorescence assay at 48 hours, using C. parvum sporozoite rabbit anti-serum (0.1%) and fluorescein-conjugated goat anti-rabbit antibody (1.0%). Percent inhibition was calculated by subtracting the mean parasite/drug from the mean parasitelmedium, divided by the mean parasite/medium, all of which was multiplied by 100. The analysis was performed using MCID and an inverted microscope.
# In vitro doses of drugs. Thiostrepton (Calbiochem) and Phavic (NTZ) were dissolved in sterile complete Dulbecco's Modified Eagle Medium (DMEM) supplemented with dimethyl sulfoxide (DMSO) at 0.2% and tested at concentrations of 800, 400, 200, and 100 μg/ml. NTZ was tested at concentrations of 100, 10, 1 and 0.1 μg/ml. Paromomycin (Sigma) was dissolved in DMEM and tested at concentrations of 2000, 1000, 500 and 250 μg/ml.
# as §1, with “assay .” for “asset”, “plates. For some monolayers, the oocysts were incubated in DMEM on the cell monolayers for four hours, at which time the monolayers were washed and then drug was added to the wells.” for “plates.”, “parasite/medium,” for “parasitelmedium,”
# In vitro doses of drugs. Thiostrepton (Calbiochem), Phavic (NTZ) were dissolved in sterile complete Dulbecco's Modified Eagle Medium (DMEM) supplemented with dimethyl sulfoxide (DMSO) at 0.2%. Thiostrepton was tested at a concentration of 800 μg/ml. NTZ was tested at a concentration of 10 μg/ml. Paromomycin was dissolved in DMEM and tested at 2000 μg/ml. Cell monolayers were infected and washed, followed by the addition of drug at time intervals of 0, 2, 4, 8 and 24 hours.
# as §1, with “assay.” for “asset”, “analyze” for “analyzed”, “parasite/medium,” for “parasitelmedium,”
# [1] = system: P. falciparum (strain 3D7); test: Assay of growth inhibition, [3H]hypoxanthine incorporation; type: cell-based; conditions: in vitro culture; [3H]hypoxanthine uptake and incorporation
# Procedure: Assay of Growth inhibition. Thiostrepton (1525 u/mg; Calbiochem) and anisomycin (Sigma) were dissolved at 100 mM in DMSO (Pierce). P. falciparum (strain 3D7) (44) was maintained in culture with human erythrocytes (5% hematocrit) in RPMI-1640 (Life Technologies) supplemented with HEPES and sodium bicarbonate and human sera (10%) under standard conditions (18,19). The growth inhibition assay was conducted as described (20). Briefly, the parasitemia was adjusted to 0.1% parasitemia, 2.5% hematocrit and 200 μl aliquots placed in wells of a microtitre dish. Serial dilutions of drugs were made in RPMI. Thiostrepton was diluted to 10 mM in DMSO before the serial dilutions in RPMI. Aliquots (20 μl) were added in triplicate to the cultures in the microtitre plate, mixing well. At the highest concentrations (final 0.2mM), thiostrepton precipitates. After incubation for 48 hours under standard conditions, [2,8-^3 H]-hypoxanthine Moravek Biochemicals, 12.5 Ci/mmol) in RPMI (20 μl, 0.05 mCi/ml) was added to each well. After incubation for a further 24 hours, the cultures were lysed and incorporated radioactivity was measured with an automated counter.
# Assay of inhibition. The effect of thiostrepton on growth and protein synthesis of P. falciparum was compared to anisomycin, since the effect of both of these drugs is on protein synthesis. To assay the effect of thiostrepton and anisomycin on the growth of P. faciparum, inhibition of the uptake and incorporation of [^3 H]hypoxanthine was quantitated at serial dilutions of the drugs on an in vitro culture of P. falciparum. […] Inhibition of the incorporation of [^3 H]leucine was also tested at the same dilutions of the drugs. For anisomycin, total protein synthesis was inhibited 50% at the IC50 (0.511 μM) for inhibition of growth, with the concentration-response almost superimposable on that of protein synthesis. […] This would occur if organelle protein synthesis was the target of inhibition (29,30).
# [2] = system: rpoB/C mRNA encoded by the 35-kb plastid-like organelle genome; type: cell-based, P. falciparum; conditions: thiostrepton at 8 μM, rifampin at 80 μM
# Procedure: As of organelle and cyloplasmic transcript levels. RNA polymerase transcript levels were assessed by comparing the amounts of RNA synthesized at timepoints following drug treatment. Cultures of P. falciparum (3.2% parasitemia, 5% hematocrit) were treated with thiostrepton at 8 μM and rifampin (Sigma) at 80 μM; near the IC99 values (this study and ref. 22). Aliquots (5 ml) of treated and control cultures were removed and immediately processed for RNA with a guanidinium thiocyanate solution, according to the manufacturer's directions (RNAgents, Promega). All RNA samples were dissolved in 50 μl DEPC-treated water, DNase I treated as previously described (23) and an aliquot (1 μl) was removed for RT-PCR First strand synthesis of cDNA was completed with a random hexamer (Superscript Preamplification System, Life Technologies). One-tenth of the CDNA product was utilized for PCR of rpoB/C, MSA1, and rRNA. Primers corresponding to the 3' region of rpoB, 5'-GGGCTTTAGAAGCTTTTGG-3' (SEQ ID NO:1), and the 5' region of rpoC, 5'-[…]-3' (SEQ ID NO:2) were applied as described (2,3) for PCR of nascent rpoB/C transcripts. Reactions were cycled with the following parameters: 94° C./30 seconds, 42° C./30 seconds, 72° C./60 seconds, 35 cycles. Primers for amplification of nucleotide 64 to 614 of MSA1 with 5'-GTGTGATAATATTCATGG-3' (SEQ ID NO:3) and 5'-GGAGAGCATTTGGTG-3' (SEQ ID NO:4)(24) and the small subunit rRNA with oligonucleotides 841 and 844 (23) were used for amplification reactions following the parameters in the respective references except with 35 cycles. Samples were also analyzed after 25 cycles of amplification to ensure detection in the linear range of the amplification reaction, with similar results. Following electrophoresis of aliquots from the amplification reactions on 1% agarose:TBE gels, samples were transferred to nylon membranes (GeneScreen Plus, DuPont) and hybridized as described (25). The amplification products were probed with 5'-^32 P-labeled oligonucleotides. The rpoB/C products were probed with 5'-[…]-3' (SEQ ID NO:5) (nucleotide 2009-2030 of rpoB) and 5'-CGGAGAGGTATTAATACC-3' (SEQ ED NO:6) (nucleotide 108-125 of rpoC), in 5×SSC, 10 mM sodium phosphate, 0.05% sodium pyrophosphate, 1% sodium dodecyl sulfate, 5×Denhardt's solution, 100 μg/ml yeast tRNA, 42° C. and washed in the hybridization solution lacking Denhardt's and tRNA at 37° C., three times. The final wash was 1×SSC, 0.5% sodium dodecyl sulfate, 42° C. followed by autoradiography. The same results were obtained with either probe. The MSA1 amplification products were similarly probed with 5'-[…]-3' (SEQ ID NO:7) and the rRNA products with oligonucleotide 842 (23).
# The target of inhibition by thiostrepton. […]
# [3] = system: P. falciparum (strain 3D7); conditions: concentration used, near the IC99 value; cited from earlier work
# [4] = Table 4 Washed at 4 hours, 1 μg/ml
# [5] = Table 4 Washed at 4 hours, 10 μg/ml
# [6] = Table 4 Washed at 4 hours, .1 μg/ml
# [7] = Table 5, 10 μg/ml, drug added at 0 hrs
# [8] = Table 5, 10 μg/ml, drug added at 2 hrs
# [9] = Table 5, 10 μg/ml, drug added at 4 hrs
# [10] = Table 5, 10 μg/ml, drug added at 8 hrs
# [11] = Table 5, 10 μg/ml, drug added at 24 hrs
compound,measurement,setting,value
CC(=O)Oc1ccccc1C(=O)Nc1ncc([N+](=O)[O-])s1 [NTZ],Inhibition Percent,"C. parvum GCH1 oocysts; Table 3 Unwashed, 1 μg/ml",43.60%
same,Inhibition Score,"C. parvum GCH1 oocysts; Table 3 Unwashed, 1 μg/ml",1 (1: 31-55%)
same,Parasite Count,"C. parvum GCH1 oocysts; Table 3 Unwashed, 1 μg/ml",694.75
same,Inhibition Percent,"C. parvum GCH1 oocysts; Table 3 Unwashed, 10 μg/ml",92.91%
same,Inhibition Score,"C. parvum GCH1 oocysts; Table 3 Unwashed, 10 μg/ml",4 (4: 91-100%)
same,Parasite Count,"C. parvum GCH1 oocysts; Table 3 Unwashed, 10 μg/ml",87.31
same,Inhibition Percent,"C. parvum GCH1 oocysts; Table 3 Unwashed, .1 μg/ml",10.31%
same,Inhibition Score,"C. parvum GCH1 oocysts; Table 3 Unwashed, .1 μg/ml",0 (0: 0-30%)
same,Parasite Count,"C. parvum GCH1 oocysts; Table 3 Unwashed, .1 μg/ml",1104.81
same,Inhibition Percent,C. parvum GCH1 oocysts; [4],83.27%
same,Inhibition Score,C. parvum GCH1 oocysts; [4],3 (3: 71-90%)
same,Parasite Count,C. parvum GCH1 oocysts; [4],233.44
same,Inhibition Percent,C. parvum GCH1 oocysts; [5],93.12%
same,Inhibition Score,C. parvum GCH1 oocysts; [5],4 (4: 91-100%)
same,Parasite Count,C. parvum GCH1 oocysts; [5],96.06
same,Inhibition Percent,C. parvum GCH1 oocysts; [6],4.42%
same,Inhibition Score,C. parvum GCH1 oocysts; [6],0 (0: 0-30%)
same,Parasite Count,C. parvum GCH1 oocysts; [6],1334.06
same,Inhibition Percent,C. parvum GCH1 oocysts; [7],91.12%
same,Inhibition Score,C. parvum GCH1 oocysts; [7],4 (4: 91-100%)
same,Parasite Count,C. parvum GCH1 oocysts; [7],113.06
same,Inhibition Percent,C. parvum GCH1 oocysts; [8],95.76%
same,Inhibition Score,C. parvum GCH1 oocysts; [8],4 (4: 91-100%)
same,Parasite Count,C. parvum GCH1 oocysts; [8],53.94
same,Inhibition Percent,C. parvum GCH1 oocysts; [9],91.18%
same,Inhibition Score,C. parvum GCH1 oocysts; [9],4 (4: 91-100%)
same,Parasite Count,C. parvum GCH1 oocysts; [9],112.31
same,Inhibition Percent,C. parvum GCH1 oocysts; [10],86.01%
same,Inhibition Score,C. parvum GCH1 oocysts; [10],3 (3: 71-90%)
same,Parasite Count,C. parvum GCH1 oocysts; [10],178.13
same,Inhibition Percent,C. parvum GCH1 oocysts; [11],60.60%
same,Inhibition Score,C. parvum GCH1 oocysts; [11],2 (2: 56-70%)
same,Parasite Count,C. parvum GCH1 oocysts; [11],501.63
same,activity when drug is added 24 hours after infection,C. parvum GCH1 oocysts; intracellular stages only,still highly inhibitory
COc1ccc(C[C@H]2NC[C@H](O)[C@H]2OC(C)=O)cc1 [anisomycin],IC50,[1],500 nM
CO[C@H]1/C=C/O[C@@]2(C)Oc3c(C)c(O)c4c(O)c(c(/C=N/N5CCN(C)CC5)c(O)c4c3C2=O)NC(=O)/C(C)=C\C=C\[C@H](C)[C@H](O)[C@@H](C)[C@@H](O)[C@@H](C)[C@H](OC(C)=O)[C@@H]1C [rifampin],"decay of mRNA corresponding to rpoB/C, time of drug treatment",[2],≤ 6 h
same,IC99 (near),[3],~80 µM

# Reference: patent publication US6313090A, “Methods for treating parasitic infection using thiopeptides” (The United States of America as represented by the …, priority 2000, dated 2001)
